According to patent US7550599B2, “Water compatible sterically hindered alkoxyamines and hydroxy substituted alkoxyamines” (Ciba Specialty Chemicals Corporation, priority 2003, dated 2009):

Columns and labels:
[1] = Ink jet media light fastness, magenta, Example 35; conditions: 50% print density, office fluorescent lighting
Method: (§1) A resin-coated paper impregnated with inorganic adsorbent particles (Konica QP Photoglossy ink jet paper, Konica Corp.) is purchased. On the ink-receiving layer, a 0.8 wt % methanol solution of the instant compounds is applied in an amount to achieve 650-700 mg/m^2, unless otherwise stated. The paper is allowed to dry under ambient temperature and pressure for 24 hours. Separately, test patterns (magenta) are printed on the treated sheets using a Hewlett Packard DeskJet 970 Cxi printer at 50% print density. The obtained prints are left to dry at ambient temperature and pressure for 24 hours. Color densities and CIEL*a*b coordinates before and after exposure are measured using X-Rite 938 Spectrodensitometer. Exposures are carried out using normal office fluorescent lighting.

[2] = Dye fading of shampoo under fluorescent light, Example 49; conditions: Clairol Herbal Essences shampoo; fluorescent light aging; loading 0.30 wt %
Method: (§2) The instant compounds are added to a commercial shampoo formulation and are evaluated for their ability to reduce the amount of dye fading when the samples are exposed to fluorescent lighting. The instant compounds (0.36 g) are dissolved in 5 mL of methanol which is then added to 120 g of shampoo (Clairol^R Herbal Essences Shampoo) with agitation. A benzotriazole UV absorber, 2-(2-hydroxy-3-tert-butyl-5-methylphenyl)-2H-benzotriazole-5-sulfonic acid, sodium salt (UVA), is optionally added to the shampoo formulation. The stabilized shampoo formulation is agitated for 15 minutes and put into 20 mL glass scintillation vials. These formulations are weathered under fluorescent light aging at ambient temperature. The CIEL*a*b coordinates before and after exposure are measured using X-Rite 938 Spectrodensitometer. Color change is expressed as Delta E (DE).

[3] = Ink jet media light fastness, cyan, Example 31; conditions: 100% print density; office fluorescent lighting; 650-700 mg/m2
Method: as §1, with “(cyan)” for “(magenta)”, “100%” for “50%”

[4] = Ink jet media light fastness, cyan, Example 34; conditions: 50% print density, office fluorescent lighting
Method: as §1, with “(cyan)” for “(magenta)”

[5] = Ink jet media light fastness, magenta, Example 32; conditions: 100% print density, office fluorescent lighting
Method: as §1, with “100%” for “50%”

[6] = Dye fading of shampoo under fluorescent light, Example 48; conditions: Suave shampoo; fluorescent light aging, ambient temperature; loading 0.30 wt %
Method: as §2, with “(Suave^R Natural^R, Fresh Mountain Strawberry)” for “(Clairol^R Herbal Essences Shampoo)”, “formulation at an equivalent concentration.” for “formulation.”

[7] = Ink jet media light fastness, cyan, Example 38; conditions: 100% print density; office fluorescent lighting; total stabilizer 650-700 mg/m2, mixtures 1:1 by weight
Method: as §1, with “mg/m^2.” for “mg/m^2, unless otherwise stated.”, “(cyan and yellow)” for “(magenta)”, “100%” for “50%”

[8] = Ink jet media light fastness, yellow, Example 38; conditions: 100% print density; office fluorescent lighting; total stabilizer 650-700 mg/m2, mixtures 1:1 by weight
Method: as §1, with “mg/m^2.” for “mg/m^2, unless otherwise stated.”, “(cyan and yellow)” for “(magenta)”, “100%” for “50%”

[9] = Solubility in 50% butyl carbitol / 50% water; format: physicochemical; conditions: 50% butyl carbitol / 50% water by weight; stirred 30 minutes
Method: (§3) The solubility of the instant compounds is evaluated in polar solvent systems. A solution of 50% butyl carbitol by weight and 50% water by weight is prepared. The instant compounds are added to this solution, stirred for 30 minutes, and sampled for analysis. Samples containing bis(1-octyloxy-2,2,6,6-tetramethylpiperidin-4-yl)sebacate and 4-hydroxy-1-(2-hydroxy-2-methylpropoxy)-2,2,6,6-tetramethylpiperidine are filtered to remove any undissolved residue and all samples are analyzed by high pressure liquid chromatography or gas chromatography.

[10] = Solubility in 50% butyl cellusolve / 50% water; format: physicochemical; conditions: 50% butyl cellusolve / 50% water by weight; stirred 30 minutes
Method: as §3, with “cellusolve” for “carbitol”, “solution” for “solution,”

[11] = Dye fading of mouthwash under fluorescent light, Example 50; conditions: Scope Original Mint mouthwash; fluorescent light aging; loading 0.30 wt %
Method: as §2, with “mouthwash” for “shampoo”, “mouthwash (Scope^R Original Mint)” for “shampoo (Clairol^R Herbal Essences Shampoo)”

Compound: CC(C)(O)CON1C(C)(C)CC(N)CC1(C)C [Example 7]
- DE for magenta after 4 weeks ([1]; 650-700 mg/m2): 16.62
- DE for magenta after 4 weeks ([1]; (2x) 1300 to 1400 mg/m2): 14.14
- DE for magenta after 4 weeks ([1]; (3x) 1950 to 2100 mg/m2): 8.60
- DE after 2 weeks [2]: 3.96
- DE for cyan after 4 weeks [3]: 4.27
- DE for cyan after 4 weeks ([4]; 650-700 mg/m2): 5.85
- DE for cyan after 4 weeks ([4]; (2x) 1300 to 1400 mg/m2): 4.95
- DE for cyan after 4 weeks ([4]; (3x) 1950 to 2100 mg/m2): 4.34
- DE for magenta after 4 weeks ([5]; 650-700 mg/m2): 20.78
- DE for magenta after 4 weeks ([5]; (2x) 1300 to 1400 mg/m2): 19.52
- DE for magenta after 4 weeks ([5]; (3x) 1950 to 2100 mg/m2): 12.99

Compound: CC(C)(O)CON1C(C)(C)CC(OC(=O)CCC(=O)O)CC1(C)C [Example 17]
- DE after 2 weeks [6]: 8.91

Compound: CC(=O)NCC(=O)NC1CC(C)(C)N(OCC(C)(C)O)C(C)(C)C1 [Example 37]
- DE for cyan after 3 months [7]: 11.39
- DE for yellow after 3 months [8]: 2.96

Compound: CC(NC1CC(C)(C)N(OCC(C)(C)O)C(C)(C)C1)C(=O)[O-].[K+] (stereo not drawn) [Example 5]
- DE after 2 weeks [2]: 1.55
- Solubility (% by weight) [9]: ≧15 % by weight
- Solubility (% by weight) [10]: ≧18 % by weight

Compound: CN(C)CCNC1CC(C)(C)N(OCC(C)(C)O)C(C)(C)C1 [Example 6]
- DE after 2 weeks [6]: 7.53

Compound: CC(C)(O)CON1C(C)(C)CC(OC(=O)C(C)(C)O)CC1(C)C [Example 18]
- DE after 2 weeks [11]: 5.11

Compound: Cl.ON(Cc1ccccc1)Cc1ccccc1 [Compound A, N,N-dibenzylhydroxylamine hydrochloride, reference compound]
- DE for cyan after 3 months [7]: 11.96
- DE for yellow after 3 months [8]: 5.31
